# Results published in patent publication US20190330197A1, “SUBSTITUTED NAPHTHALENE DIIMIDES AND THEIR USE” (UCL Business PLC, priority 2015, published 2019).
# How the values were obtained:
# [1] = system: Tloop (representing duplex DNA); assay: FRET assay, Tloop duplex DNA; type: binding; conditions: compound at 1 μM, 60 mM potassium cacodylate buffer pH 7.4
# Description: (§1) The ability of the naphthalene diimide compounds to stabilize quadruplex DNA sequences was investigated using a fluorescence resonance energy transfer (FRET) assay modified to be used as a high-throughput screen in a 96-well format. Several quadruplex sequences were studied (including the human telomeric G-quadruplex DNA sequence 5′-FAM-d(GGG[TTAGGG]3)-TAMRA-3′ and the duplex sequence 5′-FAM-d[…]-HEG-[…]-TAMRA-3′ (HEG linker: [(—CH2—CH2—O—)6.
# (§2) The labelled oligonucleotides have attached to them the donor fluorophore FAM: 6-carboxyfluorescein and the acceptor fluorophore TAMRA: 6-carboxytetramethylrhodamine. The FRET probe sequences were diluted from stock to the correct concentration (400 nM) in a 60 mM potassium cacodylate buffer (pH 7.4) and then annealed by heating to 85° C. for 10 min, followed by cooling to room temperature in the heating block. The compound was stored as a 10 mM stock solution in DMSO; final solutions (at 2× concentration) were prepared using 10 mM HCl in the initial 1:10 dilution, after which 60 mM potassium cacodylate buffer (pH 7.4) was used in all subsequent steps. The maximum HCl concentration in the reaction volume (at a ligand concentration of 20 μM) is thus 200 μM, well within the range of the buffer used. Relevant controls were also performed to check for interference with the assay. 96-Well plates (MJ Research, Waltham, Mass.) were prepared by aliquoting 50 μl of the annealed DNA into each well, followed by 50 μl of the compound solutions. Measurements were made on a DNA Engine Opticon (MJ Research) with excitation at 450-495 nm and detection at 515-545 nm. Fluorescence readings were taken at intervals of 0.5° C. in the range 30-100° C., with a constant temperature being maintained for 30 s prior to each reading to ensure a stable value. Final analysis of the data was carried out using a script written in the program Origin 7.0 (OriginLab Corp., Northampton, Mass.). The advanced curve-fitting function in Origin 7.0 was used for calculation of ΔTm values. All determinations were performed in triplicate or better. Esds in ΔTm are ±0.1° C.
# [2] = system: Bcl-2 sequence from the promoter region of the bcl-2 gene; assay: FRET quadruplex stabilisation assay, Bcl-2; type: binding; conditions: compound at 1 μM, 60 mM potassium cacodylate buffer pH 7.4
# Description: as §1, §2
# [3] = system: Kras21 sequence from the promoter region of the kras gene; assay: FRET quadruplex stabilisation assay, Kras21; type: binding; conditions: compound at 1 μM, 60 mM potassium cacodylate buffer pH 7.4
# Description: as §1, §2
# [4] = system: subcutaneous xenograft of the pancreatic tumour cell line MiaPaCa-2; assay: Antitumour activity in MiaPaCa-2 subcutaneous xenograft; type: in vivo, CD1 nude mice; conditions: 15 mg/kg IV twice weekly, FIG. 1
# Description: Study the therapeutic effect of compound 4c (MM41-tri) in comparison to MM41 and Gemcitabine in CD1 nude mice carrying a subcutaneous xenograft of the pancreatic tumour cell line MiaPaCa-2 (5×10^6 cells in the right flank) grown with Matrigel.
# • 1 Inoculate SC 5×10^6 Miapaca-2 cells in the right flank (unsupplemented RPMI+Matrigel). • 2 Wait for tumours to establish subcutaneously (approx. 11 days). • 3 Measure size of the tumours weekly until they reach a mean size of 0.1 cm^3. At this stage of the development of the tumours, mice are ready to begin the therapy study. • 4 Re group mice to form 5 therapeutic groups constituted of 8 mice each, carrying approximately 0.1 cm^3 average of the tumour size per group. • 5 Administered corresponding dose of MM41 or compound 4c or Gemcitabine by IV. • Group 1: 8 mice treated with 15 mg/Kg of Gemcitabine twice weekly dose. • Group 2: 8 mice treated with 15 mg/Kg of MM41 (tetrasubstituted ND compound) twice weekly dose. • Group 3: 8 mice treated with 15 mg/Kg of Compound 4c twice weekly dose. • Group 4: 8 mice treated with 10 mg/Kg of Compound 4c twice weekly dose. • Group 5: 8 control mice treated with saline only twice weekly.
# [5] = system: MIA-PaCa2 cells; assay: RNA-seq gene expression changes in treated MIA-PaCa2 cells; type: cell-based, human
# Method: Cell lines were purchased from American Type Culture Collection (ATCC) and stored under liquid nitrogen. Cells were maintained in monolayer culture T75 (75 cm2 flasks) in humidified 5% CO2 atmosphere at 37° C. Cells were maintained in appropriate medium according to (ATCC) with necessary supplements including L-glutamine (Thermo Fisher Scientific Cat. No. 25030024), penicillin-streptomycin solution Hybrid-Max (Sigma Cat. No. P7539) and fetal bovine serum (FBS, Thermo Fisher Scientific Cat. No. 10270106). Cells were passaged at 80-90% confluence.
# MIA-PaCa2 cells were seeded 48 hours prior to incubation, in MatTek 35 mm glass bottom dishes. Three incubation times for the compound 4c were examined: 0, 6 and 24 hrs. For RNA extraction cells (a maximum of 1×10^7 cells) were harvested by trypsinization following rinsing the cells twice in 1×PBS (without calcium chloride and magnesium chloride, purchased from Sigma Cat. No. D1408). After neutralising the medium with an equal volume of medium to trypsin cells were transferred to a sterile centrifuge tube for centrifugation for 4 minutes at 400 rpm at room temperate in order to pellet the cells. After removing the medium and trypsin following centrifugation RNA was extracted from the pellet of cells using the RNeasy Mini Kit by QIAGEN (Cat. no. 74104). RNA quality was checked by use of the NanoDrop 2000 Spectrophotometer, and a minimum quantity of ca 500 ng of RNA at >25 ng/μl concentration per replicate was verified.
# RNA-Seq sequencing studies were performed by the UCL Genomics Facility using an Illumina NextSeq 500 instrument, and data obtained on RNA expression levels of all individual genes in the genomes of the cells analysed, relative to the control cells at 0 hr exposure. Four replicates were used for each time-point, thus a total of 12 individual genomes were analysed and statistics obtained for each time-point.
# Data has been taken from RNA-seq data from treated MIA-PaCa2 cells, showing log-fold expression changes for genes selected from those showing the most significant down-regulation of expression as measured by RNA levels.
structure (smiles),measurement,setting,value
"O=C1c2ccc3c4c(c(NCCN5CCCC5)cc(c24)C(=O)N1CCCN1CCOCC1)C(=O)N(CCCN1CCOCC1)C3=O [Compound 4c, 2,7-bis(3-morpholinopropyl)-4-((2-(pyrrolidin-1-yl)ethyl)amino)benzo[Imn][3,8]phenanthroline-1,3,6,8(2H,7H)-tetraone]",ΔTm Tloop,[1],0.6 °C
same,ΔTm Bcl-2,[2],13.3 °C
same,ΔTm Kras21,[3],11.0 °C
same,anti-tumour response (tumour growth curve),[4],highly significant anti-tumour response
same,AVIL log-fold change relative to t = 0 hrs,[5]; 4c at 6 hrs,3.0
same,CBFA2T3 log-fold change relative to t = 0 hrs,[5]; 4c at 6 hrs,−2.8
same,FLG log-fold change relative to t = 0 hrs,[5]; 4c at 6 hrs,4.0
same,ITGA1 log-fold change relative to t = 0 hrs,[5]; 4c at 6 hrs,4.5
same,ITGAM log-fold change relative to t = 0 hrs,[5]; 4c at 6 hrs,7.0
same,PRDM16 log-fold change relative to t = 0 hrs,[5]; 4c at 6 hrs,−2.8
same,SHANK2 log-fold change relative to t = 0 hrs,[5]; 4c at 6 hrs,−1.9
same,ST14 log-fold change relative to t = 0 hrs,[5]; 4c at 6 hrs,5.6
same,TP73 log-fold change relative to t = 0 hrs,[5]; 4c at 6 hrs,−2.4
same,TREX1 log-fold change relative to t = 0 hrs,[5]; 4c at 6 hrs,−8.3
same,ZNF469 log-fold change relative to t = 0 hrs,[5]; 4c at 6 hrs,−3.4
same,AVIL log-fold change relative to t = 0 hrs,[5]; 4c at 24 hrs,0.5
same,CBFA2T3 log-fold change relative to t = 0 hrs,[5]; 4c at 24 hrs,−2.8
same,FLG log-fold change relative to t = 0 hrs,[5]; 4c at 24 hrs,0.7
same,ITGA1 log-fold change relative to t = 0 hrs,[5]; 4c at 24 hrs,0.4
same,ITGAM log-fold change relative to t = 0 hrs,[5]; 4c at 24 hrs,2.6
same,PRDM16 log-fold change relative to t = 0 hrs,[5]; 4c at 24 hrs,−3.5
same,SHANK2 log-fold change relative to t = 0 hrs,[5]; 4c at 24 hrs,−2.0
same,ST14 log-fold change relative to t = 0 hrs,[5]; 4c at 24 hrs,2.5
same,TP73 log-fold change relative to t = 0 hrs,[5]; 4c at 24 hrs,−1.2
same,TREX1 log-fold change relative to t = 0 hrs,[5]; 4c at 24 hrs,−2.5
same,ZNF469 log-fold change relative to t = 0 hrs,[5]; 4c at 24 hrs,−3.2
same,extent of gene expression changes,[5]; treated MIA-PaCa2 cells,changes in gene expression in a comparatively small number of genes
